Source: the supplement of paper PMC9938120

What was measured:
Assay in all cases: drug sensitivity score (DSS3, normalised partial AUC of % inhibition dose-response) (DSS (score)); higher = more sensitive (stronger inhibition of viability); extreme values may be limits of the assay
[1] = system: FMOC02_1 (patient-derived low-grade serous ovarian cancer cells); conditions: 72 h; library: FO5A; assay format: 2D, 384-well, CellTiter-Glo
In short: (§1)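 Early-passage (under 10) patient-derived ovarian cancer cells were dispensed onto 384-well flat clear-bottom plates pre-plated with compounds at five concentrations spanning a 10,000-fold range, then incubated 72 h at 37 °C, 5% CO2. Viability was read with CellTiter-Glo, and the data were processed in Breeze. The drug sensitivity score is a partial area under the percent-inhibition dose-response curve divided by the log of the upper asymptote, with higher values meaning greater sensitivity.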

[2] = system: FMOC02_2 (patient-derived low-grade serous ovarian cancer cells); conditions: 72 h; library: FO5A; assay format: 2D, 384-well, CellTiter-Glo
In short: as §1

[3] = system: FMOC02_3 (patient-derived low-grade serous ovarian cancer cells); conditions: 72 h; library: FO5A; assay format: 2D, 384-well, CellTiter-Glo
In short: as §1

[4] = system: FMOC03 (patient-derived mucinous ovarian cancer cells); conditions: 72 h; library: FO5A; assay format: 2D, 384-well, CellTiter-Glo
In short: as §1

[5] = system: FMOC04 (patient-derived high-grade serous ovarian cancer cells); conditions: 72 h; library: FO5A; assay format: 2D, 384-well, CellTiter-Glo
In short: as §1

[6] = system: FMOC06 (patient-derived mucinous ovarian cancer cells); conditions: 72 h; library: FO5A; assay format: 2D, 384-well, CellTiter-Glo
In short: as §1

[7] = system: FMOC09 (patient-derived high-grade serous ovarian cancer cells); conditions: 72 h; library: FO5A; assay format: 2D, 384-well, CellTiter-Glo
In short: as §1

[8] = system: FMOC11 (patient-derived high-grade serous ovarian cancer cells); conditions: 72 h; library: FO5A; assay format: 2D, 384-well, CellTiter-Glo
In short: as §1

[9] = system: FMOC14 (patient-derived high-grade serous ovarian cancer cells); conditions: 72 h; library: FO5A; assay format: 2D, 384-well, CellTiter-Glo
In short: as §1

[10] = system: FMOC17 (patient-derived low-grade serous ovarian cancer cells); conditions: 72 h; library: FO5A; assay format: 2D, 384-well, CellTiter-Glo
In short: as §1

[11] = system: FMOC22 (patient-derived mucinous ovarian cancer cells); conditions: 72 h; library: FO5A; assay format: 2D, 384-well, CellTiter-Glo
In short: as §1

[12] = system: FMOC24 (patient-derived high-grade serous ovarian cancer cells); conditions: 72 h; library: FO5A; assay format: 2D, 384-well, CellTiter-Glo
In short: as §1

[13] = system: FMOC25_1 (patient-derived low-grade serous ovarian cancer cells); conditions: 72 h; library: FO4B; assay format: 2D, 384-well, CellTiter-Glo
In short: as §1

[14] = system: FMOC25_2 (patient-derived low-grade serous ovarian cancer cells); conditions: 72 h; library: FO5A; assay format: 2D, 384-well, CellTiter-Glo
In short: as §1

[15] = system: FMOC27 (patient-derived low-grade serous ovarian cancer cells); conditions: 72 h; library: FO5A; assay format: 2D, 384-well, CellTiter-Glo
In short: as §1

[16] = system: FMOC28 (patient-derived low-grade serous ovarian cancer cells); conditions: 72 h; library: FO5A; assay format: 2D, 384-well, CellTiter-Glo
In short: as §1

| Structure (SMILES) | drug sensitivity score [1] | drug sensitivity score [2] | drug sensitivity score [3] | drug sensitivity score [4] | drug sensitivity score [5] | drug sensitivity score [6] | drug sensitivity score [7] | drug sensitivity score [8] | drug sensitivity score [9] | drug sensitivity score [10] | drug sensitivity score [11] | drug sensitivity score [12] | drug sensitivity score [13] | drug sensitivity score [14] | drug sensitivity score [15] | drug sensitivity score [16] |
| --- | --- | --- | --- | --- | --- | --- | --- | --- | --- | --- | --- | --- | --- | --- | --- | --- |
| CC(C)C(=O)Nc1ccc([N+](=O)[O-])c(C(F)(F)F)c1 [Flutamide] | 0 | 0 | 0 | 0 | 0.05 | 0 | 0 | 0 | 0 | 0 | 0 | 2.1 | 0 | 0 | 0 | 0 |
| C[C@H]1Oc2cc(cnc2N)-c2c(nn(C)c2C#N)CN(C)C(=O)c2ccc(F)cc21 | 0.8 | 3.2 | 3.1 | 0 | 0 | 3.4 | 1.6 | 0 | 0 | 0 | 0 | 1.6 | 0 | 1.6 | 0 | 0 |
| Cc1cccc(-c2[nH]c(CNc3ccccc3F)nc2-c2ccc3ncnn3c2)n1 [TEW-7197] | 0 | 1.8 | 0.1 | 0 | 0 | 3.9 | 0 | 0.4 | 0 | 0 | 0 | 0.85 | 0 | 0 | 0.2 | 0 |
| CNc1nc(Nc2cn(C(C)(C)C#N)nc2C)ncc1C(F)(F)F [GNE-0877] | 0 | 0 | 0 | 0 | 0 | 0 | 0 | 0 | 0 | 0 | 0 | 0 | 0 | 0 | 0 | 0 |
| CC(C)c1c(C(=O)Nc2ccccc2)c(-c2ccccc2)c(-c2ccc(F)cc2)n1CC[C@@H](O)C[C@@H](O)CC(=O)O [Atorvastatin] | 1 | 1.9 | 1.5 | 2.9 | 0.65 | 1.6 | 4.9 | 3.1 | 3.2 | 2.9 | 4.5 | 6.75 | 0.6 | 3.2 | 0 | 5.3 |
| O=C(CCCCCCC(=O)Nc1ccc([C@H]2O[C@@H](CSc3nc(-c4ccccc4)c(-c4ccccc4)o3)C[C@@H](c3ccc(CO)cc3)O2)cc1)NO [Tubacin] | 0 | 0.3 | 0.4 | 4.6 | 0 | 4.1 | 0 | 4.2 | 2.9 | 0 | 5.4 | 0.25 | 0 | 0 | 0.4 | 0.4 |
| N#Cc1ccc(C(c2ccc(C#N)cc2)n2cncn2)cc1 [Letrozole] | 0 | 0 | 0 | 0 | 0 | 0 | 0 | 0 | 0 | 0 | 0 | 0 | 0 | 0 | 0 | 0 |
| CC[C@H](CO)Nc1nc(NCc2ccccc2)c2ncn(C(C)C)c2n1 [Seliciclib] | 4.1 | 4.3 | 3.5 | 1.5 | 0.1 | 0.1 | 0 | 0 | 1.5 | 1.4 | 0 | 1.35 | 0.9 | 2.1 | 0 | 1.2 |
| COc1cc(Nc2ncc(F)c(Nc3ccc4c(n3)N(COP(=O)(O)O)C(=O)C(C)(C)O4)n2)cc(OC)c1OC [Fostamatinib] | 6.7 | 3.5 | 7.6 | 2.3 | 0 | 2.6 | 1.2 | 2.6 | 0 | 3.4 | 0.4 | 3.6 | 8.6 | 6.6 | 1.1 | 1.9 |
| Cc1cccc(-c2nn3c(c2-c2ccnc4ccc(C(N)=O)cc24)CCC3)n1 [Galunisertib] | 0 | 0 | 0 | 0 | 0 | 0 | 0 | 0 | 0 | 0 | 0 | 0.35 | 0 | 0 | 0 | 0 |
| CCN(c1cc(-c2ccc(CN3CCOCC3)cc2)cc(C(=O)NCc2c(C)cc(C)[nH]c2=O)c1C)C1CCOCC1 [Tazemetostat] | 0 | 0 | 0.1 | 0 | 0 | 0.5 | 0 | 0 | 0 | 0 | 0 | 0 | 0 | 0 | 0 | 0 |
| N#CC(c1ccnc(OCc2ccc(CN3CCOCC3)cc2)n1)c1nc2ccccc2s1 (configuration not stated) [Bentamapimod] | 1.1 | 0.9 | 1.7 | 2.8 | 0.4 | 2 | 2.9 | 3.2 | 2.3 | 4.2 | 2 | 5.8 | 0.7 | 1 | 0 | 3.8 |
